Data published in patent US20170215422A1, “NOVEL CYCLIC DEPSIPEPTIDE DERIVATIVES AND HARMFUL ORGANISM CONTROL AGENTS COMPRISING THE SAME” (priority 2012, published 2017).

Tested on: Musca domestica
Experiment: Control effect against Musca domestica adults (sucrose solution on swab)
Assay type: in vivo
Settings: 50 ppm in 40% sucrose solution, 4 days
Method: A chemical solution of the compound according to the present invention that had been adjusted with a 40% sucrose solution to a concentration of 50 ppm was adsorbed on a swab, and the swab was placed in a vial. Two adults of Musca domestica grown in a room were released, followed by standing in a room at a room temperature of 25° C. […] When two insects were in a dead or anguished state, the test compound was determined to be effective.

Q: Which “insecticidal activity (two adults dead or anguished = effective)” value (from here on “insecticidal activity”) does the source give for `CCCCCCCCC1OC(=O)C(CC)N(C)C(=O)C(CCCCC)OC(=O)C(C)N(C)C(=O)C(CCCCC)OC(=O)C(C)N(C)C(=O)C(CCCCC)OC(=O)C(C)N(C)C1=O` (centres unmarked) [Compound 13] here?
A: two insects were brought to a dead or anguished state

Q: Which “insecticidal activity” value does the source give for `CCCCCCCC1OC(=O)C(CCCC)N(C)C(=O)C(CCCCC)OC(=O)C(C)N(C)C(=O)C(CCCCC)OC(=O)C(C)N(C)C(=O)C(CCCCC)OC(=O)C(C)N(C)C1=O` [Compound 16, Cycro(-N-Me-L-Nle (R)-Nna-N-Me-L-Ala-(R)-Hep-N-Me-L-Ala-(R)-Hep-N-Me-L-Ala-(R)-Hep-)] here?
A: two insects were brought to a dead or anguished state

Q: How did the “insecticidal activity” value turn out when `CCCCCCCCCC1OC(=O)C(C)N(C)C(=O)C(CCCCC)OC(=O)C(C)N(C)C(=O)C(CCCCC)OC(=O)C(C)N(C)C(=O)C(CCCCC)OC(=O)C(C)N(C)C1=O` (centres unmarked) [Compound 9] was run?
A: two insects were brought to a dead or anguished state

Q: `CCCCCCCCCC1OC(=O)C(CCC)N(C)C(=O)C(CCCCC)OC(=O)C(C)N(C)C(=O)C(CCCCC)OC(=O)C(C)N(C)C(=O)C(CCCCC)OC(=O)C(C)N(C)C1=O` (centres unmarked) [Compound 23] was tested. Which “insecticidal activity” value did it give?
A: two insects were brought to a dead or anguished state

Q: With `CCCCCCCC1OC(=O)C(CC)N(C)C(=O)C(CCCCC)OC(=O)C(C)N(C)C(=O)C(CCCCC)OC(=O)C(C)N(C)C(=O)C(CCCCC)OC(=O)C(C)N(C)C1=O` (centres unmarked) [Compound 12] as the compound, how does the “insecticidal activity” value read?
A: two insects were brought to a dead or anguished state

Q: For `CCCCCCCCC1OC(=O)C(CCC)N(C)C(=O)C(CCCCC)OC(=O)C(C)N(C)C(=O)C(CCCCC)OC(=O)C(C)N(C)C(=O)C(CCCCC)OC(=O)C(C)N(C)C1=O` (centres unmarked) [Compound 22], which “insecticidal activity” value is on record?
A: two insects were brought to a dead or anguished state

Q: `CCCCCCCC[C@H]1OC(=O)[C@H](CC(C)C)N(C)C(=O)[C@@H](CCCCC)OC(=O)[C@H](C)N(C)C(=O)[C@H](CCCCC)OC(=O)[C@H](C)N(C)C(=O)[C@@H](CCCCC)OC(=O)[C@H](C)N(C)C1=O` [Compound 29] was tested. Which “insecticidal activity” value did it give?
A: two insects were brought to a dead or anguished state

Q: For `CCCCCCC1OC(=O)C(CC)N(C)C(=O)C(CCCCC)OC(=O)C(C)N(C)C(=O)C(CCCCC)OC(=O)C(C)N(C)C(=O)C(CCCCC)OC(=O)C(C)N(C)C1=O` (centres unmarked) [Compound 11], which “insecticidal activity” value is on record?
A: two insects were brought to a dead or anguished state

Q: For `CCCCC[C@H]1OC(=O)CN(C)C(=O)[C@@H](CCCCC)OC(=O)[C@H](CC(C)C)N(C)C(=O)[C@@H](CCCCC)OC(=O)[C@H](CC(C)C)N(C)C(=O)[C@@H](CCCCC)OC(=O)CN(C)C1=O` [Compound 47, Cycro(-N-Me-L-Gly-(R)-Hep-N-Me-L-Gly-(R)-Hep-N-Me-L-Leu-(R)-Hep-N-Me-L-Leu-(R)-Hep-)], which “insecticidal activity” value is on record?
A: two insects were brought to a dead or anguished state

Q: With `CCCCCCCC1OC(=O)C(CC(C)C)N(C)C(=O)C(CCCCC)OC(=O)CN(C)C(=O)C(CCCCC)OC(=O)CN(C)C(=O)C(CCCCC)OC(=O)CN(C)C1=O` (centres unmarked) [Compound 32] as the compound, how does the “insecticidal activity” value read?
A: two insects were brought to a dead or anguished state

Q: Which “insecticidal activity” value does the source give for `CCCCCC1OC(=O)C(C)N(C)C(=O)C(CCCCC)OC(=O)C(CCCC)N(C)C(=O)C(CCCCC)OC(=O)C(C)N(C)C(=O)C(CCCCC)OC(=O)C(C)N(C)C1=O` (centres unmarked) [Compound 15] here?
A: two insects were brought to a dead or anguished state

Q: How did the “insecticidal activity” value turn out when `CCCCCC1OC(=O)C(C)N(C)C(=O)C(CCCCC)OC(=O)C(C)N(C)C(=O)C(CCCCC)OC(=O)C(C)N(C)C(=O)C(CCCCC)OC(=O)CN(C)C1=O` (centres unmarked) [Compound 1] was run?
A: two insects were brought to a dead or anguished state

Q: How did the “insecticidal activity” value turn out when `CCCCCCCC1OC(=O)C(CCC)N(C)C(=O)C(CCCCC)OC(=O)C(C)N(C)C(=O)C(CCCCC)OC(=O)C(C)N(C)C(=O)C(CCCCC)OC(=O)C(C)N(C)C1=O` (centres unmarked) [Compound 21] was run?
A: two insects were brought to a dead or anguished state

Q: Which “insecticidal activity” value does the source give for `CCCCCCC[C@H]1OC(=O)[C@H](CC(C)C)N(C)C(=O)[C@@H](CCCCC)OC(=O)[C@H](C)N(C)C(=O)[C@H](CCCCC)OC(=O)[C@H](C)N(C)C(=O)[C@@H](CCCCC)OC(=O)[C@H](C)N(C)C1=O` [Compound 28] here?
A: two insects were brought to a dead or anguished state

Q: For `CCCCCC1OC(=O)C(CC(C)C)N(C)C(=O)C(CCCCC)OC(=O)C(CCC)N(C)C(=O)C(CCCCC)OC(=O)C(CCC)N(C)C(=O)C(CCCCC)OC(=O)CN(C)C1=O` (centres unmarked) [Compound 60], which “insecticidal activity” value is on record?
A: two insects were brought to a dead or anguished state

Q: With `CCCCCCCCC1OC(=O)CN(C)C(=O)C(CCCCC)OC(=O)C(C)N(C)C(=O)C(CCCCC)OC(=O)C(C)N(C)C(=O)C(CCCCC)OC(=O)C(C)N(C)C1=O` (centres unmarked) [Compound 4] as the compound, how does the “insecticidal activity” value read?
A: two insects were brought to a dead or anguished state

Q: With `CCCCCC1OC(=O)C(CC(C)C)N(C)C(=O)C(CCCCC)OC(=O)C(CC(C)C)N(C)C(=O)C(CCCCC)OC(=O)C(CC(C)C)N(C)C(=O)C(CCCCC)OC(=O)CN(C)C1=O` (centres unmarked) [Compound 33] as the compound, how does the “insecticidal activity” value read?
A: two insects were brought to a dead or anguished state

Q: `CCCCCCCCC1OC(=O)C(C)N(C)C(=O)C(CCCCC)OC(=O)C(C)N(C)C(=O)C(CCCCC)OC(=O)C(C)N(C)C(=O)C(CCCCC)OC(=O)C(C)N(C)C1=O` (centres unmarked) [Compound 8] was tested. Which “insecticidal activity” value did it give?
A: two insects were brought to a dead or anguished state

Tested on: adult of Ascaridiidae galli
Experiment: Anthelminticidal effect against adult of Ascaridiidae galli (in-vitro test)
Settings: 50 ppm; six adults per culture solution; 41° C.; 24 hr
Method: The activity of compounds was evaluated based on a change in motility of adults of A. galli. Compounds of the present invention were dissolved in dimethyl sulfoxide, and the solution was added to a culture solution of A. galli that had been dissolved in a Ringer's solution to a compound concentration of 50 ppm. Six adults of A. galli were placed per culture solution, followed by culturing at 41° C.

Q: How did the “anthelminticidal activity (adults that stopped automatic motility)” value (“anthelminticidal activity” below) turn out when `CCCCCC1OC(=O)C(C)N(C)C(=O)C(CCCCC)OC(=O)C(CC)N(C)C(=O)C(CCCCC)OC(=O)C(C)N(C)C(=O)C(CCCCC)OC(=O)C(C)N(C)C1=O` (centres unmarked) [Compound 10] was run?
A: four insects that had stopped automatic motility

Q: `CCCCCCC1OC(=O)CN(C)C(=O)C(CCCCC)OC(=O)C(C)N(C)C(=O)C(CCCCC)OC(=O)C(C)N(C)C(=O)C(CCCCC)OC(=O)C(C)N(C)C1=O` [Compound 2, Cycro(-N-Me-L-Gly-(R)-Oct-N-Me-L-Ala-(R)Hep-N-Me-L-Ala-(R)-Hep-N-Me-L-Ala-(R)-Hep-)] was tested. Which “anthelminticidal activity” value did it give?
A: four insects that had stopped automatic motility

Q: How did the “anthelminticidal activity” value turn out when `CCCCCC1OC(=O)C(C)N(C)C(=O)C(CCCC)OC(=O)C(C)N(C)C(=O)C(CCCCC)OC(=O)C(C)N(C)C(=O)C(CCCCC)OC(=O)C(C)N(C)C1=O` (centres unmarked) [Compound 6] was run?
A: four insects that had stopped automatic motility

Q: How did the “anthelminticidal activity” value turn out when `CCCCCC1OC(=O)C(C)N(C)C(=O)C(CCCCC)OC(=O)C(C)N(C)C(=O)C(CC(C)C)OC(=O)C(C)N(C)C(=O)C(CCCCC)OC(=O)C(C)N(C)C1=O` (centres unmarked) [Compound 61] was run?
A: four insects that had stopped automatic motility

Q: `CCCCCC1OC(=O)C(C)N(C)C(=O)C(CCCCC)OC(=O)C(CCC)N(C)C(=O)C(CCCCC)OC(=O)C(C)N(C)C(=O)C(CCCCC)OC(=O)C(C)N(C)C1=O` (centres unmarked) [Compound 19] was tested. Which “anthelminticidal activity” value did it give?
A: four insects that had stopped automatic motility

Q: How did the “anthelminticidal activity” value turn out when `CCCCCC1OC(=O)C(C)N(C)C(=O)C(CCCCC)OC(=O)C(C)N(C)C(=O)C(CCCCC)OC(=O)C(C)N(C)C(=O)C(CCCCC)OC(=O)CN(C)C1=O` (centres unmarked) [Compound 1] was run?
A: four insects that had stopped automatic motility

Tested on: egg of drug-resistant Tetranychus uruticae
Experiment: Ovicidal effect against egg of drug-resistant Tetranychus uruticae
Assay type: in vivo
Settings: foliage treatment of 10 ppm; eggs, drug-resistant strain; 7 days
Method: <Miticidal Effect Against Two-Spotted Spider Mite (Drug-Resistant Strain)>
(§1) A leaf disk having a diameter of 2.0 cm was cut out from a kidney bean grown in a pot. The leaf disk was inoculated with seven female adult of drug-resistant Tetranychus uruticae, followed by laying in a thermostatic chamber (25° C.). After the elapse of 24 hr, female adults were removed from the leaf disk. The foliage was treated with a chemical solution adjusted to a 50% aqueous acetone solution (0.05% Tween 20 added) containing a compound of the present invention at a predetermined concentration. The foliage was then air-dried and was allowed to stand in a thermostatic chamber (light period 16 hr-dark period 8 hr) (25° C.). Seven days after the chemical solution treatment, the number of remaining eggs and the number of dead mites were counted, and the ovicidal/miticidal rate was calculated by the following equation.
(§2) Ovicidal/miticidal rate (%)={(number of remaining eggs+number of dead mites)/(number of remaining eggs+number of dead mites+number of survived insects)}×100

Q: With `CCCCCCCCCCCCC1=C(OC(C)=O)C(=O)c2ccccc2C1=O` [acequinocyl, reference compound] as the compound, how does the ovicidal/miticidal rate read?
A: 11%

Same assay, conditions: summary of test results in words

Q: Which “insecticidal effect against a strain having a lowered susceptibility to acequinocyl” value does the source give for `CCCCCC1OC(=O)C(CCC)N(C)C(=O)C(CCCCC)OC(=O)C(CCC)N(C)C(=O)C(CCCCC)OC(=O)C(CC(C)C)N(C)C(=O)C(CCCCC)OC(=O)C(CCC)N(C)C1=O` (centres unmarked) [Compound 55] here?
A: high insecticidal effect

Q: Which “insecticidal effect against a strain having a lowered susceptibility to acequinocyl” value does the source give for `CCCCCC1OC(=O)C(CC(C)C)N(C)C(=O)C(CCCCC)OC(=O)C(CC(C)C)N(C)C(=O)C(CCCCC)OC(=O)C(CC(C)C)N(C)C(=O)C(CCCCC)OC(=O)C(CCC)N(C)C1=O` (centres unmarked) [Compound 56] here?
A: high insecticidal effect

Q: `CCCCCC1OC(=O)C(CCC)N(C)C(=O)C(CCCCC)OC(=O)C(CC(C)C)N(C)C(=O)C(CCCCC)OC(=O)C(CC(C)C)N(C)C(=O)C(CCCCC)OC(=O)C(CCC)N(C)C1=O` (centres unmarked) [Compound 53] was tested. Which “insecticidal effect against a strain having a lowered susceptibility to acequinocyl” value did it give?
A: high insecticidal effect

Tested on: egg of Tetranychus uruticae (susceptible strain)
Experiment: Ovicidal effect against egg of Tetranychus uruticae (susceptible strain)
Assay type: in vivo
Settings: foliage treatment of 10 ppm; control agent
Method: <Miticidal Effect Against Two-Spotted Spider Mite (Susceptible Strain)>
as §1, with “of” for “of drug-resistant”
as §2

Q: Which “ovicial/miticidal rate against egg of Tetranychus uruticae (susceptible strain)” value does the source give for `CCCCCCCCCCCCC1=C(OC(C)=O)C(=O)c2ccccc2C1=O` [acequinocyl, reference compound] here?
A: 71%
